Laboratory results as given in PubChem BioAssay (NCI).
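Compound exposure: 48 hours, 5 concentrations, 96-well plates. At the GI50, growth is halved. The concentration for full growth arrest is given as TGI.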

Legend:
Assay in all cases: NCI tumour cell line growth inhibition, 48 h
CCRF-CEM leukemia = system: CCRF-CEM leukemia
HCC-2998 colon = system: HCC-2998 colon
HOP-92 NSCLC = system: HOP-92 NSCLC
LOX IMVI melanoma = system: LOX IMVI melanoma
SF-268 CNS = system: SF-268 CNS
SK-MEL-2 melanoma = system: SK-MEL-2 melanoma
SNB-19 CNS = system: SNB-19 CNS
SNB-75 CNS = system: SNB-75 CNS
UACC-257 melanoma = system: UACC-257 melanoma
UACC-62 melanoma = system: UACC-62 melanoma

Structure (SMILES) | GI50 (CCRF-CEM leukemia) [µM] | TGI (CCRF-CEM leukemia) [µM] | GI50 (HCC-2998 colon) [µM] | TGI (HCC-2998 colon) [µM] | GI50 (HOP-92 NSCLC) [µM] | TGI (HOP-92 NSCLC) [µM] | GI50 (LOX IMVI melanoma) [µM] | TGI (LOX IMVI melanoma) [µM] | GI50 (SF-268 CNS) [µM] | TGI (SF-268 CNS) [µM] | GI50 (SK-MEL-2 melanoma) [µM] | TGI (SK-MEL-2 melanoma) [µM] | GI50 (SNB-19 CNS) [µM] | TGI (SNB-19 CNS) [µM] | GI50 (SNB-75 CNS) [µM] | TGI (SNB-75 CNS) [µM] | GI50 (UACC-257 melanoma) [µM] | TGI (UACC-257 melanoma) [µM] | GI50 (UACC-62 melanoma) [µM] | TGI (UACC-62 melanoma) [µM]
C/C=C(\C)C(=O)NC1=CC[C@@]2(C)C(=CCC3C2CC[C@@]2(C)C3CC[C@@H]2C(C)N(C)C)C1=O (stereo not given in full) | 2.58 | 15.3 | 4.01 | 15.6 | 1.66 | 14.8 | 1.63 | 3.58 | 2.14 | 6.93 | 7.52 | 22.9 | 15.9 | > 64.1 | 5.22 | 28.4 | 2.88 | 9.36 | 1.82 | 3.85
O=C(O)CN(CC(=O)O)Cc1cc(C#Cc2ccc(C#Cc3ccccc3)cc2)cc(CN(CC(=O)O)CC(=O)O)n1 |  | > 64.9 |  | > 72.4 |  | 99.6 |  | 45.8 |  | > 85.4 |  | > 73.7 |  | > 77 |  | > 100 |  | > 89.1 |  | 40.4
O=C(CCCCCCNC(=O)c1cnc(N(c2ccccc2)c2ccccc2)nc1)NO | 1.03 | > 100 | 3.38 | 12.5 | 2.13 | 15.7 | 2.15 | 11.4 | 3.77 | 33.2 | 1.9 | 8.36 | 3.67 | 31.3 | 1.5 | > 51.9 | 2.23 | 30.5 | 1.21 | 4.42
CC(=O)NC1C(OC[C@@H](CC(=O)N[C@@H](CC(=O)O)CC(=O)N[C@H](CC(=O)N[C@@H](CCCN)CC(=O)N[C@@H](CCCN)CC(=O)N[C@H](CC(N)=O)C(C)C)C(C)C)NC(=O)C[C@@H](N)C(C)C)OC(CO)C(O)C1O (stereo not given in full) | > 100 | > 100 | > 100 | > 100 | > 100 | > 100 | > 100 | > 100 | > 100 | > 100 | > 100 | > 100 | > 100 | > 100 | > 100 | > 100 | > 100 | > 100 | > 100 | > 100
ClCc1cccc2c(CCl)cccc12 | 2.31 | > 100 | 2.48 | 8.3 | 2.83 | 18.7 | 1.39 | 4.3 | 2.95 | 15 | 20.4 | 67.4 | 5.08 | 19.7 | 2.1 | 14.6 | 2.6 | 12.6 | 3.25 | 23.3
CN(CCO)CC[C@H](CSc1ccccc1)Nc1ccc(S(=O)(=O)NC(=O)c2ccc(N3CCC([C@@H](O)c4ccccc4-c4ccc(Cl)cc4)CC3)cc2)cc1S(=O)(=O)C(F)(F)F | 0.0472 | > 100 | 0.286 | 1.69 | 0.0415 | 0.387 | 1.43 | 2.97 | 3.92 | > 46 | 1.41 | 4.28 | 2.77 | 8.57 | 3.63 | 34.2 | 4.85 | 30.6 | 1.8 | 4.13
CSC(=Nc1nnc(-c2ccc([N+](=O)[O-])cc2)s1)SC |  | > 100 |  | > 100 |  | 33.1 |  | > 83.3 |  | 68 |  | > 91.6 |  | 63.2 |  | 33.6 |  | > 100 |  | > 76.5
COC(=O)C1CC23CCCN4CCC5(c6ccccc6N(C=O)C15CC2)C43 (stereo not given) |  | > 100 |  | > 100 |  | > 100 |  | > 100 |  | > 100 |  | > 100 |  | > 100 |  | > 100 |  | > 100 |  | > 100
COc1ccc(C(=S)N2CCN(c3cccc(C)c3)CC2)cc1OC | > 100 | > 100 | 5.41 | > 100 | 10.5 | 91.4 | 5.46 | > 100 | 6.18 | 86.8 | 47.5 | > 100 | 6.61 | > 100 | 2.16 | 11.9 | 55.4 | > 100 | 4.1 | > 100
COc1ccc(-c2nn(-c3cccc(Cl)c3)cc2-c2cc(-c3cccs3)[nH]c(=S)n2)cc1 | 2.8 | > 100 | 4.03 | 16.4 | 2.2 | 10.8 | 3.56 | 13.8 | 4.52 | 73.6 | 2.87 | 6.9 | 4.93 | > 100 | 3.49 | 25.6 | 3.06 | 18 | 2.78 | 19.2
CCN1C(=O)N(CC)C2C1NN=c1s/c(=C\c3cccc(F)c3)c(=O)n12 (stereo not given) | 0.181 | > 100 | 0.223 | > 65.6 | 1.44 | > 79.8 | 0.11 | > 100 | 2.61 | > 100 | 1.69 | > 100 | 0.263 | > 100 | 0.0745 | > 100 | 30 | > 100 | 0.0539 | > 100
CCN(Cc1ccc(Cl)cc1)c1ccc(CO)c(Cl)c1 | 9.96 | 45.6 | 7.7 | 21.9 | 1.52 | 11.1 | 3.36 | 15.3 | 13.5 | 29.6 | 1.75 | 10.6 | 13.1 | 28.9 | 3.4 | 17.6 | 0.145 | 0.512 | 0.0929 | 0.719
COc1ccc(C23C(=O)c4ccccc4N2O[C@H]2C(=O)N(c4ccccc4)C(=O)[C@H]23)cc1 (stereo not given in full) |  | > 100 |  | > 100 |  | > 100 |  | > 100 |  | > 100 |  | > 100 |  | > 100 |  | > 100 |  | > 100 |  | > 100
C=C(C)[C@@H]1CC[C@]2(C)CC[C@]3(C)[C@H](CC[C@@H]4[C@@]5(C)CC[C@H](O)C(C)(C)[C@@H]5CC[C@]43C)[C@@H]12 |  | 48.9 |  | > 100 |  | > 100 |  | 36.3 |  | > 100 |  | > 100 |  | > 62.8 |  | > 80.1 |  | > 80.8 |  | > 100
N=C1C(c2nc3ccccc3s2)=C(O)CN1c1ccc(F)c(Cl)c1 | 36.8 | > 100 | 61.7 | > 100 | 12 | 37.5 | 20.3 | > 100 | 22 | > 100 | 39 | > 100 | 21.5 | 85.7 | 13 | 51.4 | 22.9 | > 100 | 16.8 | 52.7
N#Cc1ccc(OCc2nc(N)nc(N)c2-c2ccc(Cl)c(Cl)c2)cc1 | 2.67 | > 100 | 3.19 | > 100 | 4.6 | > 100 | 0.424 | > 100 | 2.76 | > 100 | 3.55 | 22 | 2.79 | > 100 | 2.74 | 29.1 | 0.593 | 37.2 | 0.467 | 87.7
O=C(O)CCC(=O)N1c2ccccc2CC1c1c[nH]c2ccccc12 (stereo not given) |  | > 100 |  | > 100 |  | > 100 |  | > 100 |  | > 100 |  | > 100 |  | > 100 |  | > 100 |  | > 100 |  | > 100
Cc1nnn[n-]1.N.N.N.N.N.[Cl-].[Co+3] | > 100 | > 100 | > 100 | > 100 | > 100 | > 100 | > 100 | > 100 | > 100 | > 100 | > 100 | > 100 | > 100 | > 100 | > 100 | > 100 | > 100 | > 100 | > 100 | > 100
